According to patent publication US20220354811A1, “METHODS AND COMPOSITIONS FOR MODULATING MACROPHAGES POLARIZATION” (INSERM (INSTITUT NATIONAL DE LA SANTÉ ET DE LA RECHERCHE …, priority 2019, published 2022):

What was measured:
[1] = system: primary human monocytes; test: Cell death in CSF-1-treated differentiating monocytes (AnnexinV/DAPI flow cytometry); assay type: cell-based
Description: FIG. 1. […] (A) Macrophagic differentiation of monocytes from 3 different healthy donors was examined by 3-color flow cytometric analysis. The results are expressed as percentage of CD71/CD163 or CD16/CD163 double positive cells and represent the mean±SD of 3 independent experiments performed in duplicate. (B) Cell death from 3 different healthy donors was examined by flow cytometry analysis. The results are expressed as percentage of AnnexinV/DAPI double positive cells and represent the mean±SD of 3 independent experiments performed in duplicate. n.s. denotes not statistically significant according to a paired student t test. *P<0.05, **P<0.01, ***P<0.001 according to a paired student t test (versus d2).
To analyze the macrophagic differentiation of monocytes, the cells were washed with ice-cold phosphate buffered saline (PBS, Life Technologies, 14190169), incubated at 4° C. for 10 min in PBS/bovine serum albumin (BSA 0.5%, Dutscher, 871002) with anti-CD16, anti-CD71 and anti-CD163 or isotype controls (Miltenyi and BD Biosciences, catalog numbers were 130-113-396, 130-097-628 and 551374). Finally, the cells were washed and fixed in 2% paraformaldehyde (EMS, 15710). To perform macrophage polarization, purified monocytes were plated at 0.3×10^6 per mL in RPMI 1640 medium with glutamax-I supplemented with 10% (vol/vol) fetal bovine serum plus CSF-1 for 5+2 days to differentiate into M0 macrophages. 20 ng/mL IL-4 (Miltenyi, 130-094-117) was added after 5 days of differentiation for two days to polarize into M2-macrophages. To analyze the macrophage polarization, cells were detached using PBS/EDTA/BSA, washed with PBS, and incubated at 4° C. for 10 min in PBS/bovine serum albumin with anti-CD200R (Biolegend, 329308), anti-CD206 (Miltenyi, 130-100-034) and anti-CD163 (Miltenyi, 130-097-628) or isotype controls. Finally, the cells were washed and fixed in 2% paraformaldehyde (EMS, 15710). Fluorescence was measured with a MACSQuant® Analyzer (Miltenyi, Paris, France). To analyze the cell death, cells were washed with ice-cold PBS and incubated at 4° C. for 15 min in a specific buffer (10 mM HEPES, 150 mM NaCl, 5 mM KCl, 1 mM MgCl2, 1 mM CaCl2) with AnnexinV-FITC (Miltenyi, 130-097-928) and DAPI (Sigma-Aldrich, D9542). Fluorescence was measured with a MACSQuant® Analyzer (Miltenyi, Paris, France). To analyze the ability of macrophages to phagocyte bacteria, we used Vybrant® Phagocytosis Assay Kit according manufacture's instruction (ThermoFisher, V-6694). […] Fluorescence, that indicate the internalization of particles, was measured with a MACSQuant® Analyzers (Miltenyi, France). Trypan blue solution was used to quench the fluorescence from particles that were not internalized. […]

[2] = system: IL4-polarized macrophages; test: mRNA expression in IL-4-polarized macrophages (RNAseq, qPCR); assay type: cell-based, human
Procedure: Human monocytes were differentiated during 5 days with 50 ng/mL CSF-1 and then polarized into MO-macrophages (CSF-1) or M2-macrophages (IL-4) for 24 (mRNA) or 48 hours. […] The expression of the indicated mRNA is analyzed by qPCR (mean ±SEM of 6 independent experiments). *P<0.05, **P<0.01 according to a paired student t test (versus M2-macrophages).
The RNA integrity (RNA Integrity Score≥7.0) was checked on the Agilent 2100 Bioanalyzer (Agilent) and quantity was determined using Qubit (Invitrogen). SureSelect Automated Strand Specific RNA Library Preparation Kit was used according to manufacturer's instructions with the Bravo Platform. Briefly, 50 to 200 ng of total RNA sample was used for poly-A mRNA selection using oligo(dT) beads and subjected to thermal mRNA fragmentation. The fragmented mRNA samples were subjected to cDNA synthesis and were further converted into double stranded DNA using the reagents supplied in the kit, and the resulting dsDNA was used for library preparation. The final libraries were bar-coded, purified, pooled together in equal concentrations and subjected to paired-end sequencing on Novaseq-6000 sequencer (Illumina) at Gustave Roussy.
Quantification. Quality of raw FastQ files was assessed with Fastqc v0.11.8 and Fastq-screen v0.13.0. Quality report was gathered with MultiQC v1.8. Abundance estimation was performed with Salmon v0.14.1 using following parameters: —libType A —validateMappings —numBootstraps 60. Salmon index was created using Human Gencode reference annotation release 33 and using following parameters —gencode —keepDuplicates. Differential analysis. Statistical analysis was performed using R 3.6.1. Transcript expression levels were aggregated in gene expression levels using tximport v1.14.0 Bioconductor package. At this step only protein coding genes were considered. We also decided to keep only high quality annotations therefore genes annotated as “automated annotation” in GENCODE were discarded. DESeq2 v1.26.0 method was used to identify differentially expressed genes between groups with an adjusted p-value threshold of 0.05.
RNA was prepared from 5×10^6 cells using the RNeasy Mini Kit according to manufacturer's protocol (Qiagen, 74104). Each cDNA sample was prepared using AMV RT and random primers (Promega, M510F and C1181). Real-time polymerase chain reaction (PCR) was performed using the SyBR Green detection protocol (Life Technologies, 4367659). Briefly, 5 ng of total cDNA, 500 nM (each) primers, and 5 μL SyBR Green mixture were used in a total volume of 10 μL. Detection of multiple endogenous controls (ACTB, L32 and UBIQUITIN) were used to normalize the results. Specific forward and reverse primers are accessible upon request.

[3] = system: human primary monocytes; details: literature (Jacquel et al., Blood 2009, Sci Reports 2018); cited from earlier work
[4] = qPCR, Emricasan 3 μM added 16h before polarization

SMILES	apoptosis induction in undifferentiated monocytes [1]	DAPI staining ([1]; higher concentrations (3 μM))	toxicity for primary human monocytes ([1]; low concentrations (up to 2 μM))	Annexin V staining ([1]; low concentrations, CSF-1, 48 h)	IL-4 induction of anti-inflammatory and repression of pro-inflammatory markers (RNAseq) ([2]; macrophages from three different donors)	IL-4-increased CCL18 mRNA expression [2, 4]	IL-4-increased CD200R mRNA expression [2, 4]	CXCL8 mRNA level ([2]; qPCR, IL-4 combined with Emricasan 3 μM)	effect on CSF-1-induced monocyte differentiation [3]
C[C@H](NC(=O)C(=O)Nc1ccccc1C(C)(C)C)C(=O)N[C@@H](CC(=O)O)C(=O)COc1c(F)c(F)cc(F)c1F [Emricasan, (S)-3-((S)-2-(2-((2-(tert-Butyl)phenyl)amino)-2-oxoacetamido)propanamido)-4-oxo-5-(2,3,5,6-tetrafluorophenoxy)pentanoic acid]	did not induce apoptosis	slightly increased DAPI staining	not toxic	failed to induced significant loss of Annexin V staining	counteracted	counteracted	counteracted	upregulated	
CC(C)[C@H](NC(=O)c1ccc2ccccc2n1)C(=O)N[C@@H](CC(=O)O)C(=O)COc1c(F)cccc1F [Q-VD-OPh]									inhibits
